Laboratory results as given in patent publication US9771359B1, “Substituted oxazole- and thiazole-based carboxamide and urea derivatives as vanilloid receptor ligands II” (MEDIFRON DBT INC., priority 2014, dated 2017).
Where a name gives a salt, the structure may show the parent alone.

Molecular target: vanilloid receptor 1 (VR1/TRPV1) (Homo sapiens (Human), UniProt Q8NER1)
Assay: FLIPR assay, Ca2+ influx in CHO K1 cells transfected with the human VR1 gene
Assay type: cell-based
Details: for compound-alone effect on Ca2+ influx (agonist / partial agonist): compound 5 μM, % activation compared with control capsaicin 10 μM; for Ki: displacement of capsaicin 100 nM, Ki from IC50 by Cheng-Prusoff equation, read-out: (f) Ki (human) [nM] Cap; for inhibition at 5 µM: CHO-K1, @5 μM test compound, capsaicin 100 nM, read-out: inhibition (as a percentage), Cap
Method: Furthermore, preference may be given to compounds according to the first aspect of the invention that cause a 50% displacement of capsaicin, which is present at a concentration of 100 nM, in a FLIPR assay with CHO K1 cells which were transfected with the human VR1 gene at a concentration of less than 2 000 nM, preferably less than 1 000 nM, particularly preferably less than 300 nM, most particularly preferably less than 100 nM, even more preferably less than 75 nM, additionally preferably less than 50 nM, most preferably less than 10 nM. In the process, the Ca^2+ influx is quantified in the FLIPR assay with the aid of a Ca^2+-sensitive dye (type Fluo-4, Molecular Probes Europe BV, Leiden, the Netherlands) in a fluorescent imaging plate reader (FLIPR, Molecular Devices, Sunnyvale, USA), as described hereinafter.
The FLIPR protocol consists of 2 substance additions during a kinetic measurement. First the compounds to be tested (5 μM) are pipetted onto the cells and the Ca^2+ influx is determined in comparison to the control (capsaicin 10 μM), providing the result as % activation and representing the compound-alone effect (calculation at peak signal related to baseline). […] After 5 min incubation, the Ca^2+ influx is related to an injection of 100 nM of capsaicin and thereby the antagonistic effect of the test compounds detected.
Desensitising agonists and antagonists lead to suppression of the Ca^2+ influx. The % inhibition is calculated compared to the maximum achievable inhibition with 10 μM of capsaicin. Triple analyses (n=3) are carried out and repeated in at least 3 independent experiments.
Starting from the percentage displacement caused by different concentrations of the compounds to be tested of general formula I, IC50 inhibitory concentrations which cause a 50-% displacement of capsaicin were calculated. Ki values for the test substances were obtained by conversion by means of the Cheng-Prusoff equation (Cheng, Prusoff; Biochem. Pharmacol. 22, 3099-3108, 1973).
Chinese hamster ovary cells (CHO K1 cells, European Collection of Cell Cultures (ECACC) United Kingdom) are stably transfected with the VR1 gene. For functional testing, these cells are plated out on poly-D-lysine-coated black 96-well plates having a clear base (BD Biosciences, Heidelberg, Germany) at a density of 25,000 cells/well. The cells are incubated overnight at 37° C. and 5% CO2 in a culture medium (Ham's F12 nutrient mixture, 10% by volume of FCS (foetal calf serum), 18 μg/ml of L-proline). The next day the cells are incubated with Fluo-4 (Fluo-4 2 μM, 0.01% by volume of Pluronic F127, Molecular Probes in HBSS (Hank's buffered saline solution), Gibco Invitrogen GmbH, Karlsruhe, Germany) for 30 min at 37° C. Subsequently, the plates are washed three times with HBSS buffer and after further incubation for 15 min at RT used for Ca^2+ measurement in a FLIPR assay. The Ca^2+-dependent fluorescence is measured before and after the addition of the substances to be tested (λex wavelength=488 nm, λem=540 nm). Quantification is carried out by measuring the highest fluorescence intensity (FC, fluorescence counts) over time.

vanilloid receptor 1 (VR1/TRPV1), sequence (Q8NER1 whole entry): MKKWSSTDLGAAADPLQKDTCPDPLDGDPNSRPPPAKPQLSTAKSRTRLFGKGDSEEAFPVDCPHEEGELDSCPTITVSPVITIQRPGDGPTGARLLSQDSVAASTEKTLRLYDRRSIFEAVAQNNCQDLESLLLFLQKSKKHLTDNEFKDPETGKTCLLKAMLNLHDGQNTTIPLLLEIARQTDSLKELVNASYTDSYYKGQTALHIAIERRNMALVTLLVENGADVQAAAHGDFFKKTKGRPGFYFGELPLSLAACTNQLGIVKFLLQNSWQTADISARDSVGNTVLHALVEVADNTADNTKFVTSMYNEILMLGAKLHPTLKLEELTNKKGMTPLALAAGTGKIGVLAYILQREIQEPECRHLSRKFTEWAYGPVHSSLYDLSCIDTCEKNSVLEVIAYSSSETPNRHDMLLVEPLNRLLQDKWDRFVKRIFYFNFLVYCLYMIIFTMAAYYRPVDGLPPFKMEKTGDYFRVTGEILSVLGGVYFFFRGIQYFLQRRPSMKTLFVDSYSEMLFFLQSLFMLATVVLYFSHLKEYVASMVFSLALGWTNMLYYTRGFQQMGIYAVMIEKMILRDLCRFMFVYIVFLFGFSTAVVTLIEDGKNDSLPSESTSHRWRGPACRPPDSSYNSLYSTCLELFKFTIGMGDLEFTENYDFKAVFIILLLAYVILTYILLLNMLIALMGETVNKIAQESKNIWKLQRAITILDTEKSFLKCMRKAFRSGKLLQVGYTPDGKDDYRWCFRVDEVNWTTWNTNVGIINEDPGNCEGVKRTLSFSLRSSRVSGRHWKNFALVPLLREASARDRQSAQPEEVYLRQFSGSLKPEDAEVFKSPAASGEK

| SMILES | Ki | inhibition at 5 µM | compound-alone effect on Ca2+ influx (agonist / partial agonist) |
| --- | --- | --- | --- |
| CC(C)(C)c1nc(-c2cccc(Cl)c2)c(CNC(=O)Nc2ccc(CO)nc2)o1 [EX-25, 1-((2-(tert-butyl)-4-(3-chlorophenyl)oxazol-5-yl)methyl)-3-(6-(hydroxymethyl)pyridin-3-yl)urea] | 73.1 nM |  | pAG (A Ca^2+ influx of 10%-60% reveals a partial agonist (pAG)) |
| O=C(NCc1oc(C(F)(F)F)nc1-c1cccc(Cl)c1)Nc1ccc(CO)nc1 [EX-27, 1-((4-(3-chlorophenyl)-2-(trifluoromethyl)oxazol-5-yl)methyl)-3-(6-(hydroxymethyl)pyridin-3-yl)urea] | 62.5 nM |  |  |
| CS(=O)(=O)CCc1ccc(NC(=O)NCc2oc(C(F)(F)F)nc2-c2cccc(Cl)c2)cn1 [EX-30, 1-((4-(3-chlorophenyl)-2-(trifluoromethyl)oxazol-5-yl)methyl)-3-(6-(2-(methylsulfonyl)ethyl)pyridin-3-yl)urea] |  | 41% |  |
| O=C(NCc1oc(C(F)(F)F)nc1-c1cccc(Cl)c1)Nc1ccc(N2CC(O)C2)nc1 [EX-32, 1-((4-(3-chlorophenyl)-2-(trifluoromethyl)oxazol-5-yl)methyl)-3-(6-(3-hydroxyazetidin-1-yl)pyridin-3-yl)urea] | 60.8 nM |  |  |
| O=C(NCc1sc(C(F)(F)F)nc1-c1cccc(Cl)c1)Nc1ccc(N2CC(O)C2)nc1 [EX-33, 1-((4-(3-chlorophenyl)-2-(trifluoromethyl)thiazol-5-yl)methyl)-3-(6-(3-hydroxyazetidin-1-yl)pyridin-3-yl)urea] | 24.6 nM |  |  |
| CC(C)(C)c1nc(-c2cccc(Cl)c2)c(CNC(=O)Nc2ccc(CCO)nc2)o1 [EX-35, 1-((2-(tert-butyl)-4-(3-chlorophenyl)oxazol-5-yl)methyl)-3-(6-(2-hydroxyethyl)pyridin-3-yl)urea] | 78.4 nM |  |  |
| CC(C)(C)c1nc(-c2cccc(Cl)c2)c(CNC(=O)Nc2ccc(CCO)nc2)s1 [EX-36, 1-((2-(tert-butyl)-4-(3-chlorophenyl)thiazol-5-yl)methyl)-3-(6-(2-hydroxyethyl)pyridin-3-yl)urea] |  |  | AG (a Ca^2+ influx of >60% relates to a pure agonist (AG)) |
| O=C(NCc1oc(C(F)(F)F)nc1-c1cccc(Cl)c1)Nc1ccc(CCO)nc1 [EX-37, 1-((4-(3-chlorophenyl)-2-(trifluoromethyl)oxazol-5-yl)methyl)-3-(6-(2-hydroxyethyl)pyridin-3-yl)urea] |  | 46% |  |
| CC(C)(C)c1nc(-c2cccc(Cl)c2)c(CNC(=O)Nc2ccc(OCCO)nc2)o1 [EX-40, 1-((2-(tert-butyl)-4-(3-chlorophenyl)oxazol-5-yl)methyl)-3-(6-(2-hydroxyethoxy)pyridin-3-yl)urea] | 43.6 nM |  |  |
| O=C(NCc1oc(C(F)(F)F)nc1-c1cccc(Cl)c1)Nc1ccc(OCCO)nc1 [EX-42, 1-((4-(3-chlorophenyl)-2-(trifluoromethyl)oxazol-5-yl)methyl)-3-(6-(2-hydroxyethoxy)pyridin-3-yl)urea] | 103 nM |  |  |
| CC(C)(C)c1nc(-c2cccc(Cl)c2)c(CNC(=O)Nc2ccc(COCCO)nc2)o1 [EX-46, 1-((2-(tert-butyl)-4-(3-chlorophenyl)oxazol-5-yl)methyl)-3-(6-((2-hydroxyethoxy)methyl)pyridin-3-yl)urea dihydrochloride] |  | 55% |  |
| O=C(NCc1oc(C(F)(F)F)nc1-c1cccc(Cl)c1)Nc1ccc(COCCO)nc1 [EX-48, 1-((4-(3-chlorophenyl)-2-(trifluoromethyl)oxazol-5-yl)methyl)-3-(6-((2-hydroxyethoxy)methyl)pyridin-3-yl)urea dihydrochloride] |  | 31% |  |
| O=C(NCc1sc(C(F)(F)F)nc1-c1cccc(Cl)c1)Nc1ccc(COCCO)nc1 [EX-49, 1-((4-(3-chlorophenyl)-2-(trifluoromethyl)thiazol-5-yl)methyl)-3-(6-((2-hydroxyethoxy)methyl)pyridin-3-yl)urea dihydrochloride] | 35 nM |  |  |
| CC(C)(C)c1nc(-c2cccc(Cl)c2)c(CNC(=O)Nc2ccc3cnccc3c2)s1 [EX-52, 1-((2-(tert-butyl)-4-(3-chlorophenyl)thiazol-5-yl)methyl)-3-(isoquinolin-6-yl)urea] |  |  | AG (a Ca^2+ influx of >60% relates to a pure agonist (AG)) |

More lines, main results first:

| Ki | inhibition at 5 µM | SMILES | compound-alone effect on Ca2+ influx (agonist / partial agonist) |
| --- | --- | --- | --- |
| 10.2 nM |  | CC(C)(C)c1nc(-c2cccc(Cl)c2)c(CNC(=O)Nc2ccc(CO)nc2)s1 [EX-26, 1-((2-(tert-butyl)-4-(3-chlorophenyl)thiazol-5-yl)methyl)-3-(6-(hydroxymethyl)pyridin-3-yl)urea] | pAG (A Ca^2+ influx of 10%-60% reveals a partial agonist (pAG)) |
| 19.4 nM |  | O=C(NCc1sc(C(F)(F)F)nc1-c1cccc(Cl)c1)Nc1ccc(CO)nc1 [EX-28, 1-((4-(3-chlorophenyl)-2-(trifluoromethyl)thiazol-5-yl)methyl)-3-(6-(hydroxymethyl)pyridin-3-yl)urea] |  |
| 48.8 nM |  | CS(=O)(=O)CCc1ccc(NC(=O)NCc2sc(C(F)(F)F)nc2-c2cccc(Cl)c2)cn1 [EX-31, 1-((4-(3-chlorophenyl)-2-(trifluoromethyl)thiazol-5-yl)methyl)-3-(6-(2-(methylsulfonyl)ethyl)pyridin-3-yl)urea] |  |
| 30.2 nM |  | O=C(NCc1sc(C(F)(F)F)nc1-c1cccc(Cl)c1)Nc1ccc(CCO)nc1 [EX-34, 1-((4-(3-chlorophenyl)-2-(trifluoromethyl)thiazol-5-yl)methyl)-3-(6-(2-hydroxyethyl)pyridin-3-yl)urea] | pAG (A Ca^2+ influx of 10%-60% reveals a partial agonist (pAG)) |
| 52.6 nM |  | CC(C)(C)c1nc(-c2cccc(Cl)c2)c(CNC(=O)Nc2ccc(CNS(C)(=O)=O)cc2)o1 [EX-38, N-(4-(3-((2-(tert-butyl)-4-(3-chlorophenyl)oxazol-5-yl)methyl)ureido)benzyl)methanesulfonamide] |  |
| 17.6 nM |  | CC(C)(C)c1nc(-c2cccc(F)c2)c(CNC(=O)Nc2ccc(CNS(C)(=O)=O)cc2)s1 [EX-39, N-(4-(3-((2-(tert-butyl)-4-(3-fluorophenyl)thiazol-5-yl)methyl)ureido)benzyl)methanesulfonamide] |  |
| 27.5 nM |  | CC(C)(C)c1nc(-c2cccc(Cl)c2)c(CNC(=O)Nc2ccc(OCCO)nc2)s1 [EX-41, 1-((2-(tert-butyl)-4-(3-chlorophenyl)thiazol-5-yl)methyl)-3-(6-(2-hydroxyethoxy)pyridin-3-yl)urea] |  |
| 29.8 nM |  | O=C(NCc1sc(C(F)(F)F)nc1-c1cccc(Cl)c1)Nc1ccc(OCCO)nc1 [EX-43, 1-((4-(3-chlorophenyl)-2-(trifluoromethyl)thiazol-5-yl)methyl)-3-(6-(2-hydroxyethoxy)pyridin-3-yl)urea] |  |
| 29.9 nM |  | CC(C)(C)c1nc(CNC(=O)Nc2ccc(CNS(N)(=O)=O)cc2)c(-c2cccc(Cl)c2)o1 [EX-44, N-((5-(3-chlorophenyl)-2-(tertbutyl)oxazol-4-yl)methyl)-N′-(4-((sulfamoylamino)methyl)phenyl)urea] |  |
| 33.3 nM |  | CC(C)(C)c1nc(-c2cccc(Cl)c2)c(CNC(=O)Nc2ccc(COCCO)nc2)s1 [EX-47, 1-((2-(tert-butyl)-4-(3-chlorophenyl)thiazol-5-yl)methyl)-3-(6-((2-hydroxyethoxy)-methyl)pyridin-3-yl)urea dihydrochloride] |  |
| 5.6 nM |  | CC(C)(C)c1nc(-c2cccc(Cl)c2)c(CNC(=O)Nc2ccc3c(c2)OCO3)s1 [EX-50, 1-(benzo[d][1,3]dioxol-5-yl)-3-((2-(tert-butyl)-4-(3-chlorophenyl)thiazol-5-yl)methyl)urea] | pAG (A Ca^2+ influx of 10%-60% reveals a partial agonist (pAG)) |
| 2.9 nM |  | CC(C)(C)c1nc(-c2cccc(Cl)c2)c(CNC(=O)Nc2cccc3c2CCC3)s1 [EX-51, 1-((2-(tert-butyl)-4-(3-chlorophenyl)thiazol-5-yl)methyl)-3-(2,3-dihydro-1H-inden-4-yl)urea] | pAG (A Ca^2+ influx of 10%-60% reveals a partial agonist (pAG)) |
